Measurements taken from patent publication US4150139A, “Triazolobenzazepine derivatives” (Takeda Chemical Industries, Ltd., priority 1976, dated 1979).

Tested on: mice
Experiment: Analgesic Effect [mice, acetic acid-writhing method]
Assay type: in vivo
Settings: Mus musculus, po, P.O. (per os), 95% C.L. in parentheses
Source text: The analgesic effects of some representative compounds (I) are set forth below in Table I.
[mice, acetic acid-writhing method]

Row | SMILES | ED50 [mg/kg]
1 | CSc1nnc2n1C=Cc1ccccc1C2 [(I')Z = SCH3, 3-methylthio-11H-s-triazolo[3,4-b][3]benzazepine] | 10.5
2 | C[S+]([O-])c1nnc2n1C=Cc1ccccc1C2 (centres unmarked) [(I')Z = SOCH3, 3-methylsulfinyl-11H-s-triazolo[3,4-b][3]benzazepine] | 10.3
